Consider seven compounds from ChEMBL document CHEMBL1201862, “PubChem BioAssay data set” (2004).

Experiment [1] addresses Delta-type opioid receptor (Homo sapiens, UniProt P41143). In words: Counterscreen for agonists of heterodimerization of the mu 1 (OPRM1) and delta 1 (OPRD1) opioid receptors: Luminescence-based cell-based high throughput dose response assay to identify agonists of OPRD1 homodimerization. [Related pubchem assays (depositor defined):AID504326, AID504355, AID504692, AID504904, AID504905]. In kind it is functional.

A further experiment deals with Mu-type opioid receptor (Homo sapiens, UniProt P35372). In words: Counterscreen for agonists of heterodimerization of the mu 1 (OPRM1) and delta 1 (OPRD1) opioid receptors: Luminescence-based cell-based high throughput dose response assay to identify agonists of OPRM1 homodimerization. In kind it is functional. For orientation: The purpose of a counterscreen is to sort out artefacts and off-target activity.
Chain of Mu-type opioid receptor (P35372 whole entry): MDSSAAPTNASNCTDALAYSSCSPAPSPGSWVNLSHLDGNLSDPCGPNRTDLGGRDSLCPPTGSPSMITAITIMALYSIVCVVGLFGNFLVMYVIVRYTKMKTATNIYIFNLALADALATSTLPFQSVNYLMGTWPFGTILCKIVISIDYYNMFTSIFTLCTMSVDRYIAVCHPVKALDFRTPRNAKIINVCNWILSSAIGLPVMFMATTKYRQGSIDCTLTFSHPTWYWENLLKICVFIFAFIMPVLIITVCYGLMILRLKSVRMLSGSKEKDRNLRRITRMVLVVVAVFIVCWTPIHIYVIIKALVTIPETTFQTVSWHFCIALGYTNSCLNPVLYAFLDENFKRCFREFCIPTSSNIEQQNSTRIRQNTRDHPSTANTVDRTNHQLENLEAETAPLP

The target of experiment [2] is 5-hydroxytryptamine receptor 5A (Homo sapiens, UniProt P47898). In words: Counterscreen for agonists of OPRM1-OPRD1 heterodimerization: luminescence-based cell-based high throughput dose response assay to identify agonists of 5-hydroxytryptamine (serotonin) 5A receptor (HTR5A). [Related pubchem assays (depositor defined):AID504326, AID504355, AID504692, AID504904, AID504905]. In kind it is functional.
Chain of 5-hydroxytryptamine receptor 5A (P47898 whole entry): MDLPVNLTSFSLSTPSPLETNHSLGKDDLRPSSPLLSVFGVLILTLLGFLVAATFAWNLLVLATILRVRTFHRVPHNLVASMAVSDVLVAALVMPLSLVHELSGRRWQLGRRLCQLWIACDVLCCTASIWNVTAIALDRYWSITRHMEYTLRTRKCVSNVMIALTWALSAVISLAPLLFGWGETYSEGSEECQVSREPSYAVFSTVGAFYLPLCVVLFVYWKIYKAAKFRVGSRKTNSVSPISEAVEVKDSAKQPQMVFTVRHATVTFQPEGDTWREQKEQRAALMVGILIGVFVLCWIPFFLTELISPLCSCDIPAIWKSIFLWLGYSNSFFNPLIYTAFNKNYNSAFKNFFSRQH

Another experiment deals with Cytochrome P450 2C9 (Homo sapiens, UniProt P11712).
Chain of Cytochrome P450 2C9 (P11712 whole entry): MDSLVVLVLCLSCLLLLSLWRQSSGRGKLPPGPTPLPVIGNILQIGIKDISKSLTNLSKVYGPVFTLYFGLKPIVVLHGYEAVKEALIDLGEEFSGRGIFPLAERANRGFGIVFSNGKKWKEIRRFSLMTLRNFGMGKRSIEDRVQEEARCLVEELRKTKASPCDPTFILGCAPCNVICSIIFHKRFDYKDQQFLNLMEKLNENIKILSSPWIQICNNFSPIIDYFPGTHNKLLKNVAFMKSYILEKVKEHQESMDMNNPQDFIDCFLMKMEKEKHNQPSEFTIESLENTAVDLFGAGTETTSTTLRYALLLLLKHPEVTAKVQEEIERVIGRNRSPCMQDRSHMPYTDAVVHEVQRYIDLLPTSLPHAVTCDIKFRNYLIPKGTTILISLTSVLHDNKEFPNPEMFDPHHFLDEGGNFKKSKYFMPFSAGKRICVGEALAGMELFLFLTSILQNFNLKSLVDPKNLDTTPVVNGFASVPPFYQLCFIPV
In a further experiment the target is T1, Bcl-2-related protein A1 (Mus musculus, UniProt Q07440).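 Further: confirmatory dose–response counterscreen on Bfl-1, used to check hits from a UBC13 polyubiquitin inhibitor campaign.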
T1 sequence (Q07440 whole entry): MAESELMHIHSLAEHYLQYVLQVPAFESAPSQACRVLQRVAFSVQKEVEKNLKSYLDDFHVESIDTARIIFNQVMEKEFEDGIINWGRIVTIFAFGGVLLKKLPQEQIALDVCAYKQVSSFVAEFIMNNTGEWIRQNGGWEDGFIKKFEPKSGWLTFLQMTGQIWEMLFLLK
In kind it is functional.

In experiment [3] the target is T2, Ubiquitin-conjugating enzyme E2 N (Homo sapiens, UniProt P61088).
T2 sequence (P61088 whole entry): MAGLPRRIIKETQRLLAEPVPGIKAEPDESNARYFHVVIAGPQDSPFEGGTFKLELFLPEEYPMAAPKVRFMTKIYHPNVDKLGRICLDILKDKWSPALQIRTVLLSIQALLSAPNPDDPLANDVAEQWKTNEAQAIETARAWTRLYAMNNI
In kind it is functional.

The target in experiment [4] is T2, Ubiquitin-conjugating enzyme E2 N. The format is functional. The source holds these as a separate data set.
Experiment [5] deals with T3, RNA-binding protein pos-1 (Caenorhabditis elegans, UniProt G5EF15).
T3 sequence (G5EF15 whole entry): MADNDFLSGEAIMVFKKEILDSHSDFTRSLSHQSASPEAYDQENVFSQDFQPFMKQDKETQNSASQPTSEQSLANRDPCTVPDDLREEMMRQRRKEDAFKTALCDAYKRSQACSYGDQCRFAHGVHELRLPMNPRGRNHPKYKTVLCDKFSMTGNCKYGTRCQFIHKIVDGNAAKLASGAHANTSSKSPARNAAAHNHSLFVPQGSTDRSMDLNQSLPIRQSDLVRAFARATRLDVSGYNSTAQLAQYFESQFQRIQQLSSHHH
In words: inhibitors of POS-1/mex-3 RNA binding, dose response, biochemical, fluorescence polarization (AID 1964).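 Further: purified POS-1 fused to maltose binding protein made in E. coli; potency of compounds blocking POS-1 binding to fluorescent RNA.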 In general terms: Fluorescence polarisation rises when a labelled molecule tumbles more slowly, as on binding a larger partner.

The subject of experiment [6] is Streptococcus sp. 'group A'. In words: growth inhibition of control SK(-) GAS strain, dose response, counter-screen for streptokinase expression inhibitor project, luminescence, kanamycin, BacTiterGlo, confirmation (AID 1900). The format is functional, organism-based.
Experiment [7] can be described thus: A Cell Based Secondary Assay To Explore Cytotoxicity of Compounds that Sensitize Mycobacterium Tuberculosis to Beta-Lactam Antibiotics. The format is functional.
Experiment [8] concerns the target T4, Zinc finger protein mex-5 (Caenorhabditis elegans, UniProt Q9XUB2).
T4 sequence (Q9XUB2 whole entry): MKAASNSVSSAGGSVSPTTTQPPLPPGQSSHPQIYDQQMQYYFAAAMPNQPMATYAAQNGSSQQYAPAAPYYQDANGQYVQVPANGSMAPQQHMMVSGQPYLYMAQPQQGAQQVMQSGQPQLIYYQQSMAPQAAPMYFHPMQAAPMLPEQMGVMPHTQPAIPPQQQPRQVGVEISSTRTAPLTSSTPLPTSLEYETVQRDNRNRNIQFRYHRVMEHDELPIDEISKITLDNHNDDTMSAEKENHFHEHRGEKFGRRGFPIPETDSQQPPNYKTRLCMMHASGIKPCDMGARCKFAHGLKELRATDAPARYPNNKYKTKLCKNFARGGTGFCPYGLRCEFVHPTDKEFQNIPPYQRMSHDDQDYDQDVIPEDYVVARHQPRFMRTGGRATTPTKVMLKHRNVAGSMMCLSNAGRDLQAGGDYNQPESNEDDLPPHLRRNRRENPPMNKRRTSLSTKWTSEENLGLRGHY
In words: MEX-5/TCR-2 RNA interaction inhibitors, dose response, biochemical, C. elegans, fluorescence polarization (AID 1960).

The next experiment concerns the target T5, Streptokinase A (Streptococcus pyogenes serotype M1, UniProt P10520).
T5 sequence (P10520 whole entry): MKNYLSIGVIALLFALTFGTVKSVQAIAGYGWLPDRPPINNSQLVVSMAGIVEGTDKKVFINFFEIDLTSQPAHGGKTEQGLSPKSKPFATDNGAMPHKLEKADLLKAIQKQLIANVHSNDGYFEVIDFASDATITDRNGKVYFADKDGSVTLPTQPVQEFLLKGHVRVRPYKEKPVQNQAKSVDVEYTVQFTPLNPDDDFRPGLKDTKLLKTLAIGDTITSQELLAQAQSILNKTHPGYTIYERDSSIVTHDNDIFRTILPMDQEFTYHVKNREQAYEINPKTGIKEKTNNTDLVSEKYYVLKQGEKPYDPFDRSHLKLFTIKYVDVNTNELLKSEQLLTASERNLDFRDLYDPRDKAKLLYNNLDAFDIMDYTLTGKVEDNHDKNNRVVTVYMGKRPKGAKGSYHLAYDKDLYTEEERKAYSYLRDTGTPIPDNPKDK
In words: S. pyogenes streptokinase expression inhibitors, potency, dose response, plasminogen activation absorbance, OD405 (AID 1914).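 Further: secreted streptokinase activity via plasminogen activation per viability signal from cell pellet.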 In kind it is functional, Streptococcus pyogenes M1 GAS.

In another experiment the test system is Streptococcus. In words: Group A Streptococcus viability loss, dose response, counter-screen for streptokinase expression inhibitor project, luminescence, BacTiterGlo (AID 1915).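 Further: potency for reduction of bacterial viability or growth.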 In kind it is functional, organism-based.
In experiment [9] the target is T6, Endoribonuclease toxin MazF (Escherichia coli K-12, UniProt P0AE70).
T6 sequence (P0AE70 whole entry): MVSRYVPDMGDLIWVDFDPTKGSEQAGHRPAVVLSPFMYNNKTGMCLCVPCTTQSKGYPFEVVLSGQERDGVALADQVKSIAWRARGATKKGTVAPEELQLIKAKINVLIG
In words: MazF toxin RNase activators, dose response, biochemical, fluorescence, single-stranded RNA substrate, uHTS hits (AID 588481). The format is functional.

For experiment [10], the target named is T6, Endoribonuclease toxin MazF. In words: fluorescent RNA oligo signal without MazF, dose response, counter-screen for MazEF activator project, biochemical, fluorescence, single-stranded RNase substrate (AID 588502). In kind it is functional.
In experiment [11] the target is T7, Calpain-2 catalytic subunit (Sus scrofa, UniProt P43367).
T7 sequence (P43367 whole entry): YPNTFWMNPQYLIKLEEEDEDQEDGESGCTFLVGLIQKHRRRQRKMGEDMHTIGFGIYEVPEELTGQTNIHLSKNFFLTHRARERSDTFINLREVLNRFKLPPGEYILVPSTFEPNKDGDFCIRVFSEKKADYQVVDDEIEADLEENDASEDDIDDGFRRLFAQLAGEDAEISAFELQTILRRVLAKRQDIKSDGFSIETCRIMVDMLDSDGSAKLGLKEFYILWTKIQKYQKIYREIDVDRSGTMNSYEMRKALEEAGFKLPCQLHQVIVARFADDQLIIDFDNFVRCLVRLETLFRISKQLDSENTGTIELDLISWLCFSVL
In words: pig calpain II inhibitor potency, dose response, biochemical, fluorogenic peptide substrate (AID 1420). In kind it is functional.

In another experiment the target is T8, ORF 73 (Human herpesvirus 8, UniProt O40947).
T8 sequence (O40947 whole entry): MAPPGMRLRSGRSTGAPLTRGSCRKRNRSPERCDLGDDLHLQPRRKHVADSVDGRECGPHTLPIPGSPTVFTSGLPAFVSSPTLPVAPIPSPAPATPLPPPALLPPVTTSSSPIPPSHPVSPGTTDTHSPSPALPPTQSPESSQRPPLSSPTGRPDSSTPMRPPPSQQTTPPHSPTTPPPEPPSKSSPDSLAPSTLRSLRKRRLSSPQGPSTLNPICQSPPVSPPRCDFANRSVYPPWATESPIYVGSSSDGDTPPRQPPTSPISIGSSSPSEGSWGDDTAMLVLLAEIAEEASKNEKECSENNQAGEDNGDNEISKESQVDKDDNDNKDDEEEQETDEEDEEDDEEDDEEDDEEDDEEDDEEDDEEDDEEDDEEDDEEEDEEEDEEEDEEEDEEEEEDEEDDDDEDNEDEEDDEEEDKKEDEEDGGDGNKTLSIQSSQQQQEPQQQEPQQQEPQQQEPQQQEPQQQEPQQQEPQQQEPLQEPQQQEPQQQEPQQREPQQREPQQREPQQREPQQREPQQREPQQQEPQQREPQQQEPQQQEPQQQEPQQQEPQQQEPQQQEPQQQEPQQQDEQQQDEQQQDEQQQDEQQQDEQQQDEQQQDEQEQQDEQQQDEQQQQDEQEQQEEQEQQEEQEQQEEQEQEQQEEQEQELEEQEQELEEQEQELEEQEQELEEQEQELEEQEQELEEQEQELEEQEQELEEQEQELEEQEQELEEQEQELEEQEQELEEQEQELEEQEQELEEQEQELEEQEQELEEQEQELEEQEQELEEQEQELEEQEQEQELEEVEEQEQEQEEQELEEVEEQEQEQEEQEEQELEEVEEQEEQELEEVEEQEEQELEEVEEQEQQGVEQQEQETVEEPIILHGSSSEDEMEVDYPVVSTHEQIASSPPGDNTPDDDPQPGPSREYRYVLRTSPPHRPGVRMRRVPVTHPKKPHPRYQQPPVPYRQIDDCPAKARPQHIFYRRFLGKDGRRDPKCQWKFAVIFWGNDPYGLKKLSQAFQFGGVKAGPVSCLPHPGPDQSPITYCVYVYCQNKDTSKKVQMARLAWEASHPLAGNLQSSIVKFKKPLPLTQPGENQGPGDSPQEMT
In words: inhibitors of C-LANA binding to LBS DNA, dose response, biochemical, fluorescence polarization, cherry-picked samples (AID 504725).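 Further: fluorescence polarization of a labeled DNA duplex reporting LANA DNA binding; potency is for inhibitors that block LANA binding to the DNA.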 Also on record: species or system Human gammaherpesvirus 8.

Calls of active or inactive are those of the source. A value given as a limit tells only on which side of the number the result lay.

Chain of Delta-type opioid receptor (P41143 whole entry): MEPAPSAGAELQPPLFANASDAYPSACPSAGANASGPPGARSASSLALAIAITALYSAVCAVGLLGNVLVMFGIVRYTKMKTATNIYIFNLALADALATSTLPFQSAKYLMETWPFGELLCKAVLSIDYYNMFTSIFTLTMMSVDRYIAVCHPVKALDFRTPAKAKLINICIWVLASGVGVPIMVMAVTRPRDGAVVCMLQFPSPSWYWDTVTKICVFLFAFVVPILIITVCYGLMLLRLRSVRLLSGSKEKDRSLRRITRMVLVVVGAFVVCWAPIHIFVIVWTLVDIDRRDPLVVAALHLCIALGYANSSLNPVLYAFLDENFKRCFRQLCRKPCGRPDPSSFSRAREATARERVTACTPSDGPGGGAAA

Take `COc1cc(C2C(C#N)=C(N)N(c3sc4c(c3C#N)CCCC4)C3=C2C(=O)CC(C)(C)C3)cc(OC)c1OC` (stereo unspecified): the EC50 (in experiment [1]; on Mu-type opioid receptor; in experiment [2]) was > 92.5 µM (inactive) each time. Further, the AC50 (usually the concentration at which the activity in the assay is half-maximal) at Cytochrome P450 2C9 was 12.6 µM (inconclusive).

Turning to `COc1cccc(NC(=O)CSc2nc3ccccc3c(=O)n2Cc2cccs2)c1`, the figures for the IC50 (at Bcl-2-related protein A1; in [3]; in experiment [4]) were > 20 µM (inactive), 19.3 µM (active) and > 20 µM (inactive), respectively.

Regarding `CC1=Nc2ccccc2/C1=C\c1nc(-c2ccc(F)cc2)oc1O`, the EC50 (as a rule, the concentration needed to bring the measured effect to its halfway point) is > 300 µM (not active) in experiment [5]; 8.82 µM (active) in experiment [6]; 5.53 µM (active) in experiment [8]; 16.6 µM (active) on Streptokinase A; > 150 µM (not active) in the experiment on Streptococcus; > 99 µM (inactive) in [9]. In experiment [10], the EC50 was 55.9 µM (inactive). The CC50 (usually the concentration at which the toxic effect on the cells reaches its halfway point) in [7] was > 40 µM (active).

With `CN(C)C(CNC(C(=O)Nc1ccc([N+](=O)[O-])cc1Br)c1ccccc1)c1ccccc1` (stereo unspecified), in [11], the IC50 (commonly the point on the concentration scale where inhibition reaches its midpoint) is on record as 4.94 µM (not active). For the same compound, the EC50 (in experiment [1]; on Mu-type opioid receptor; in experiment [2]) was > 92.5 µM (inactive) throughout.

As for `Cc1cc(O)c2c(n1)c(C)cc1[nH]c(C)c(C)c12`, at ORF 73, the AC50 is 42.3 µM (active).

Take `C#CCOCCOCCOCCNc1nc(N2CCN(C(=O)[C@H](CCCCN)n3cc(CN)nn3)CC2)nc(N2CCN(C(=O)[C@H](CCCCN)n3cc([C@@H](N)[C@H](C)CC)nn3)CC2)n1`: the IC50 is > 20 µM (inactive) on Bcl-2-related protein A1, 4.49 µM (active) in experiment [3] and 3.13 µM (active) in experiment [4].

In the case of `Cc1nc(N)sc1C(=O)N/N=C/c1cccnc1`, the IC50 on Bcl-2-related protein A1 was > 20 µM (inactive); in experiment [3], 1.68 µM (active); in experiment [4], 1.89 µM (active).
